The nature of the data set: Measurement of critical degree of supersaturation of spherulite. In kind it is physicochemical. From the text:
“Supersaturated solution” in the present description means a solution in a state of containing a solute exceeding the solubility. As the degree of supersaturation, “degree of supersaturation” can be used. Regarding the degree of supersaturation, when the concentration (mass concentration (g/g)) of a compound dissolved in a supersaturated solution is defined as C and the solubility of the compound is defined as Cs, the degree of supersaturation S can be represented by the following formula: […]
“Critical degree of supersaturation” in the present description means the lowest degree of supersaturation required to obtain a specifically-shaped crystal. […] The value of a critical degree of supersaturation varies depending on the shape of a crystal. For example, all of values of a critical degree of supersaturation required to obtain a plate crystal, a critical degree of supersaturation required to obtain a needle crystal, and a critical degree of supersaturation required to obtain a spherulite are different. The critical degree of supersaturation required to obtain a spherulite is higher than the critical degree of supersaturation required to obtain a plate crystal or a needle crystal.
The actual measured value of the critical degree of supersaturation (S*) can be measured as follows:
(1) 100 particles are observed by SEM. (2) 5 to 10 particles whose shape is close to a desired specific shape are selected, and the shape is evaluated. In particular, when the desired specific shape is a sphere, the sphericity is evaluated. (3) Based on the evaluation index of the shape, whether the selected particles have the desired specific shape or not is determined. In particular, when the desired specific shape is a sphere, the case where the sphericity is 0.60 or more is determined as a spherulite. (4) The above-mentioned operation is performed for each sample having a different degree of supersaturation during crystallization, and the minimum value of a degree of supersaturation having the specifically-shaped particles is determined as the critical degree of supersaturation. The difference between the maximum value of a degree of supersaturation not having the specifically-shaped particles and the critical degree of supersaturation should be 20% or less.
The critical degree of supersaturation of a spherulite of ketotifen fumarate was determined as follows. To 2.0 g of ketotifen fumarate, 10 mL (5 v/w) of methanol was added, followed by reflux to completely dissolve. This solution was added dropwise to 50 mL of isopropanol at 20° C. to prepare a supersaturated solution of ketotifen fumarate. The degree of supersaturation of the supersaturated solution at the end of dropwise addition was 9.0. The supersaturated solution was crystallized. The crystal was collected by filtration, followed by drying under reduced pressure at 40° C., thus obtaining a crystal of ketotifen fumarate.
Similarly, when a substrate and a solvent different from those mentioned above are used, a plurality of samples having a different degree of supersaturation are prepared and crystallized, and then the critical degree of supersaturation of the spherulite was measured.

Counter-ions that a name gives are not always drawn.

For `Cc1cccc(C)c1NC(=O)CC12CCCN1CCC2.Cl` [Pilsicainide hydrochloride anhydride], the “actual measured value of the critical degree of supersaturation” value (from here on “actual measured value”) is listed as 27. Also, the “Critical degree of supersaturation S Experimental value” (entry 35, solvent 1 IPA, solvent 2 Toluene, solvent 2/solvent 1 ratio 10, crystallization 5 °C) was determined as 27.

Take `CN(C)CCC[C@@]1(c2ccc(F)cc2)OCc2cc(C#N)ccc21` [Escitalopram oxalate]: the “actual measured value” value turned out to be 3.7. The “Critical degree of supersaturation S Experimental value” (entry 21, solvent 1 H2O, solvent 2 2-BuOH, solvent 2/solvent 1 ratio 30, crystallization 0 °C) was determined as 2.8. In addition, the “Critical degree of supersaturation S Experimental value” (entry 22, solvent 1 H2O, solvent 2 2-BuOH, solvent 2/solvent 1 ratio 15, crystallization 0 °C) was 3.7. Besides, the “Critical degree of supersaturation S Experimental value” (entry 23, solvent 1 H2O, solvent 2 IPA, solvent 2/solvent 1 ratio 15, crystallization 0 °C) is recorded as 4.

Take `Cc1cc(N2CCN([C@@H]3CN[C@H](C(=O)N4CCSC4)C3)CC2)n(-c2ccccc2)n1` [Teneligliptin hydrobromide hydrate]: the “actual measured value” value amounted to 7.9. For the same compound, the “Critical degree of supersaturation S Experimental value” (entry 32, solvent 1 MeOH, solvent 2 1-BuOH, solvent 2/solvent 1 ratio 10, crystallization 0 °C) came out at 5.2. Besides, the “Critical degree of supersaturation S Experimental value” (entry 33, solvent 1 MeOH, solvent 2 1-BuOH, solvent 2/solvent 1 ratio 10, crystallization 20 °C) amounted to 7.9. For the same compound, the “Critical degree of supersaturation S Experimental value” (entry 34, solvent 1 MeOH, solvent 2 1-BuOH, solvent 2/solvent 1 ratio 10, crystallization 40 °C) came out at 12.6.

On to `CC[C@H]1OC(=O)[C@H](C)[C@@H](O[C@H]2C[C@@](C)(OC)[C@@H](O)[C@H](C)O2)[C@H](C)[C@@H](O[C@@H]2O[C@H](C)C[C@H](N(C)C)[C@H]2O)[C@](C)(O)C[C@@H](C)CN(C)[C@H](C)[C@@H](O)[C@]1(C)O` [Azithromycin monohydrate], for which the “Critical degree of supersaturation S Experimental value” is reported as 3.2 (entry 11, solvent 1 IPA, solvent 2 H2O, solvent 2/solvent 1 ratio 10, crystallization 0 °C); 1.6 (entry 14, solvent 1 IPA, solvent 2 H2O, solvent 2/solvent 1 ratio 20, crystallization 0 °C); 6.2 (entry 15, solvent 1 Acetone, solvent 2 H2O, solvent 2/solvent 1 ratio 10, crystallization 0 °C); 7.1 (entry 16, solvent 1 EtOH, solvent 2 H2O, solvent 2/solvent 1 ratio 20, crystallization 0 °C); 7.5 (entry 17, solvent 1 MeOH, solvent 2 H2O, solvent 2/solvent 1 ratio 20, crystallization 0 °C); 11.1 (entry 18, solvent 1 IPA, solvent 2 H2O, solvent 2/solvent 1 ratio 10, crystallization 20 °C).

In the case of `CC[C@H]1OC(=O)[C@H](C)[C@@H](O[C@H]2C[C@@](C)(OC)[C@@H](O)[C@H](C)O2)[C@H](C)[C@@H](O[C@@H]2O[C@H](C)C[C@H](N(C)C)[C@H]2O)[C@](C)(OC)C[C@@H](C)C(=O)[C@H](C)[C@@H](O)[C@]1(C)O` [Clarithromycin], the “actual measured value” value was 17. Moreover, the “Critical degree of supersaturation S Experimental value” (entry 8, solvent 1 THF, solvent 2 H2O, solvent 2/solvent 1 ratio 25, crystallization 0 °C) was determined as 11. In addition, the “Critical degree of supersaturation S Experimental value” (entry 9, solvent 1 THF, solvent 2 H2O, solvent 2/solvent 1 ratio 70, crystallization 0 °C) was 26. Moreover, the “Critical degree of supersaturation S Experimental value” (entry 10, solvent 1 THF, solvent 2 H2O, solvent 2/solvent 1 ratio 75, crystallization 10 °C) is recorded as 17.

With `Cc1c(OCC(F)(F)F)ccnc1C[S+]([O-])c1nc2ccccc2[nH]1` (stereo not drawn) [Lansoprazole], the “actual measured value” value was 10.9. In addition, the “Critical degree of supersaturation S Experimental value” (entry 2, solvent 1 MeOH, solvent 2 H2O, solvent 2/solvent 1 ratio 3, crystallization 0 °C) stood at 6.9. Moreover, where the note is “entry 20, solvent 1 MeOH, solvent 2 H2O, solvent 2/solvent 1 ratio 3, crystallization 15 °C”, the “Critical degree of supersaturation S Experimental value” stood at 12.6.

Take `Nc1nc(CC(=O)Nc2ccc(CCNC[C@H](O)c3ccccc3)cc2)cs1` [Mirabegron]: the “actual measured value” value amounted to 5.6. Further, the “Critical degree of supersaturation S Experimental value” (entry 48, solvent 1 H2O, solvent 2 MeOH, solvent 2/solvent 1 ratio 1.25, crystallization 0 °C) is recorded as 1.6. The “Critical degree of supersaturation S Experimental value” (entry 49, solvent 1 H2O, solvent 2 MeOH, solvent 2/solvent 1 ratio 1.25, crystallization 10 °C) worked out at 3.2. For the setting “entry 50, solvent 1 MeOH, solvent 2 TBME, solvent 2/solvent 1 ratio 10, crystallization 0 °C”, the “Critical degree of supersaturation S Experimental value” worked out at 4. In addition, the “Critical degree of supersaturation S Experimental value” (entry 51, solvent 1 MeOH, solvent 2 TBME, solvent 2/solvent 1 ratio 10, crystallization 10 °C) came out at 4.3. Moreover, the “Critical degree of supersaturation S Experimental value” (entry 52, solvent 1 EtOH, solvent 2 TBME, solvent 2/solvent 1 ratio 10, crystallization 0 °C) worked out at 5.6. Besides, the “Critical degree of supersaturation S Experimental value” (entry 53, solvent 1 EtOH, solvent 2 TBME, solvent 2/solvent 1 ratio 10, crystallization 10 °C) turned out to be 5.4.

For `N[C@@H](CCC(=O)N[C@@H](CS)C(=O)NCC(=O)O)C(=O)O` [Glutathione], the “actual measured value” value is reported as 18.7. The “Critical degree of supersaturation S Experimental value” (entry 47, solvent 1 H2O, solvent 2 EtOH, solvent 2/solvent 1 ratio 5, crystallization 20 °C) was found to be 18.7.

For the compound `CN1CCC(=C2c3ccccc3CC(=O)c3sccc32)CC1` [Ketotifen fumarate], the “Critical degree of supersaturation S Experimental value” runs as follows: (entry 4, solvent 1 MeOH, solvent 2 IPA, solvent 2/solvent 1 ratio 5, crystallization 0 °C) 2.5; (entry 5, solvent 1 MeOH, solvent 2 IPA, solvent 2/solvent 1 ratio 5, crystallization 50 °C) 4; (entry 6, solvent 1 MeOH, solvent 2 2-BuOH, solvent 2/solvent 1 ratio 5, crystallization 0 °C) 1.6; (entry 7, solvent 1 MeOH, solvent 2 2-BuOH, solvent 2/solvent 1 ratio 5, crystallization 20 °C) 4.4. For the same compound, the “critical degree of supersaturation of a spherulite” value (methanol to isopropanol 1:5, temperature during crystallization 20° C.) came to 4.0.

For the compound `COc1ccc2[n-]c([S+]([O-])Cc3ncc(C)c(OC)c3C)nc2c1.COc1ccc2[n-]c([S+]([O-])Cc3ncc(C)c(OC)c3C)nc2c1.[Mg+2]` (stereo not drawn) [Esomeprazolc magnesium hydrate], the “Critical degree of supersaturation S Experimental value” (entry 1, solvent 1 MeOH, solvent 2 H2O, solvent 2/solvent 1 ratio 1, crystallization 35 °C) is 1.4.

Take `CCCCCCOC(=O)N=C(N)c1ccc(NCc2nc3cc(C(=O)N(CCC(=O)OCC)c4ccccn4)ccc3n2C)cc1` [Dabigatran etexilate methanesulfonate]: the “actual measured value” value was 4.3. Also, the “Critical degree of supersaturation S Experimental value” (entry 24, solvent 1 MeOH, solvent 2 TBME, solvent 2/solvent 1 ratio 10, crystallization 20 °C) is 3.3. Moreover, under “entry 25, solvent 1 EtOH, solvent 2 EtOAc, solvent 2/solvent 1 ratio 10, crystallization 5 °C”, the “Critical degree of supersaturation S Experimental value” came to 2.9. Moreover, the “Critical degree of supersaturation S Experimental value” (entry 26, solvent 1 EtOH, solvent 2 EtOAe, solvent 2/solvent 1 ratio 10, crystallization 20 °C) is on record as 4.3. In addition, for the setting “entry 27, solvent 1 EtOH, solvent 2 EtOAc, solvent 2/solvent 1 ratio 10, crystallization 35 °C”, the “Critical degree of supersaturation S Experimental value” is on record as 5.2.

On to `CC(C)[C@H](N)C(=O)OCCOCn1cnc2c(=O)[nH]c(N)nc21` [Valacyclovir hydrochloride], for which the “Critical degree of supersaturation S Experimental value” (entry 56, solvent 1 H2O, solvent 2 2-BuOH, solvent 2/solvent 1 ratio 35, crystallization 10 °C) is 48.6.

Consider `Cc1ccccc1C(=O)Nc1ccc(C(=O)N2CCCC(O)c3cc(Cl)ccc32)c(C)c1` (stereo not drawn) [Tolvaptan], for which the “actual measured value” value is recorded as 4.8. The “Critical degree of supersaturation S Experimental value” (entry 54, solvent 1 MeOH, solvent 2 H2O, solvent 2/solvent 1 ratio 0.4, crystallization 0 °C) is 4.8. For the same compound, the “Critical degree of supersaturation S Experimental value” (entry 55, solvent 1 MeOH, solvent 2 H2O, solvent 2/solvent 1 ratio 0.4, crystallization 10 °C) is reported as 7.1.

For the compound `O=C(O)CCCN1CCC(O[C@@H](c2ccc(Cl)cc2)c2ccccn2)CC1.O=S(=O)(O)c1ccccc1` [Bepotastine besilate], the “actual measured value” value is recorded as 36.4. Besides, the “Critical degree of supersaturation S Experimental value” (entry 57, solvent 1 EtOH, solvent 2 AcOiPr, solvent 2/solvent 1 ratio 10, crystallization 0 °C) is given as 36.4.

For the compound `CN(C)CC/C=C1/c2ccccc2COc2ccc(CC(=O)O)cc21` [Olopatadine], the “actual measured value” value was 9.7. Moreover, the “Critical degree of supersaturation S Experimental value” (entry 58, solvent 1 MeOH, solvent 2 EtOAc, solvent 2/solvent 1 ratio 20, crystallization 15 °C) was found to be 9.7.
